Some results are limits rather than exact numbers.

The target of one experiment is T1, human 5-HT6 (Homo sapiens, UniProt P50406).
T1 construct: expressed in transfected cells
T1 sequence (P50406 whole entry): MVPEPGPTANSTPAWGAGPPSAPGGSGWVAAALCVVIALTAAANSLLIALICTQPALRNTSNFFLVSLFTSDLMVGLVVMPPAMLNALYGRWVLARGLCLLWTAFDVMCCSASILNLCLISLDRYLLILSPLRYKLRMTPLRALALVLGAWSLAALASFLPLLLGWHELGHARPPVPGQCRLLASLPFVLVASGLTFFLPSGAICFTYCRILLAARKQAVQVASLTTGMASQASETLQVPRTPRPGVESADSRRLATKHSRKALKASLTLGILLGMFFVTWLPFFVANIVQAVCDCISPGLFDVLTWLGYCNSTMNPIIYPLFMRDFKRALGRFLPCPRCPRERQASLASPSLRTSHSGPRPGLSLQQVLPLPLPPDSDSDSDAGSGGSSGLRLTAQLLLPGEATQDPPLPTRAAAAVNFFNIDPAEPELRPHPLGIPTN
Briefly: cAMP agonist and antagonist mode at 5-HT6 (HTRF, 1321N1 cells). The experiment is classed as cell-based. The conditions noted are these: reference agonist, used in antagonist mode. Here is the method: For assessment of 5-HT6 activity, 1321N1 cells stably expressing human 5-HT6 were grown to ˜90% confluence in a humidified atmosphere at 37° C. with 5% CO2 in F12 nutrient mixture (Ham) containing 10% dialyzed FBS, 400 µg/ml G418, 100 U/ml penicillin, and 100 µg/ml streptomycin. Medium was removed by aspiration, cells were washed 1× with PBS, and dissociated using PBS-EDTA for […] at room temperature. Cells were then diluted with PBS and pelleted by centrifugation for […] at 1000 rpm. Cells were suspended in assay buffer containing 3000 µM Ro-20-1724 (Sigma, St. Louis, Mo.), a phosphodiesterase inhibitor. Cells were seeded using a microplate dispenser at a density of 3,750 cells/well in a volume of 5 µl onto 384 well white wall/opaque bottom, small volume plates (Greiner Bio One, Monroe, N.C.).
Compound plates for cAMP assays were prepared at 8 mM in 100% DMSO and diluted in assay buffer to the appropriate test concentrations. The final in-well concentration of DMSO was 0.5%. Compounds were tested in duplicate wells using a range of twelve concentrations. […]
Homogeneous time-resolved fluorescence (HTRF) (cAMP dynamic 2 kit; Cisbio, Bedford, Mass.) was used to measure the formation of 3′,5′-cyclic adenosine monophosphate (cAMP) per the manufacturer's instructions. HTRF signal was measured at 620 and 665 nm using an EnVision Multilabel Plate Reader (PerkinElmer). […]
Take `NCCc1c[nH]c2ccc(O)cc12` [5-HT, 5-hydroxytryptamine]: the “EC80 of 5-HT” value is recorded as 15 nM.

The target of another experiment is human 5-HT2C(VSV) (Homo sapiens, UniProt P28335, I156V/I160V/N158S). In words: cell-based.
Chain of human 5-HT2C(VSV) (P28335 33-458 I156V/N158S/I160V limits assumed): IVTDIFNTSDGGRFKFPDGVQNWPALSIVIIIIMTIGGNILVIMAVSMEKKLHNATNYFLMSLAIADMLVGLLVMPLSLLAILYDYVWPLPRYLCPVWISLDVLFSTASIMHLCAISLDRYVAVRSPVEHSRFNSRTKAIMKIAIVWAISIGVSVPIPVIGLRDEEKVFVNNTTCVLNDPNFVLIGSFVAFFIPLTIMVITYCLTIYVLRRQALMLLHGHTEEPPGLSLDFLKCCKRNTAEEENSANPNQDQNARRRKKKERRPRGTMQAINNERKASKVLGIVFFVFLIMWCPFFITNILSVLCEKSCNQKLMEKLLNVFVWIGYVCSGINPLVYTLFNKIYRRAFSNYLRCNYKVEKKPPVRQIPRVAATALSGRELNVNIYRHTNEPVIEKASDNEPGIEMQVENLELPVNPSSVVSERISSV
Settings: not given
`CNCCc1cn(C)c2cc(F)cc(OCc3ccccc3Cl)c12` [33-44, 2-(4-(2-chlorobenzyloxy)-6-fluoro-1-methyl-1H-indol-3-yl)-N-methylethanamine] returned an EC50 of 1 to 500 nM.
Regarding `COc1c(F)ccc2c1c(CCN1CCCC1C(N)=O)cn2C` (stereo not drawn) [17-9, 1-(2-(5-fluoro-4-methoxy-1-methyl-1H-indol-3-yl)ethyl)pyrrolidine-2-carboxamide], the EC50 fell in the range of 500 to 10000 nM.
For `Cc1cccc(CNCCc2cn(C)c3ccc(F)c(O)c23)n1` [17-20, 5-fluoro-1-methyl-3-(2-(((6-methylpyridin-2-yl)methyl)amino)ethyl)-1H-indol-4-ol], the EC50 is less than 10000 nM.
On to `COc1c(F)ccc2c1c(CCN1CCN(c3cccc(Cl)c3)CC1)cn2C` [17-15, 3-(2-(4-(3-chlorophenyl)piperazin-1-yl)ethyl)-5-fluoro-4-methoxy-1-methyl-1H-indole], for which the EC50 lay in the range of 1 to 500 nM.
On the same count and under the same terms, the value for `CN(C)CCc1cn(Cc2ccc3ccccc3c2)c2c(F)ccc(OCc3ccccc3)c12` [7-6, 2-(4-(benzyloxy)-7-fluoro-1-(naphthalen-2-ylmethyl)-1H-indol-3-yl)-N,N-dimethylethanamine] was 1 to 500 nM.
As to `CNCCc1cn(C)c2ccc(F)c(OCCc3ccc(Cl)cc3)c12` [33-29, 2-(4-(4-chlorophenethoxy)-5-fluoro-1-methyl-1H-indol-3-yl)-N-methylethanamine], the EC50 is 1 to 500 nM.
Take `CCOc1c(F)ccc2c1c(CCNC1Cc3ccccc3C1)cn2C` [30-16, N-(2-(4-ethoxy-5-fluoro-1-methyl-1H-indol-3-yl)ethyl)-2,3-dihydro-1H-inden-2-amine]: the EC50 lay within 1 to 500 nM.
On the same count and under the same terms, the result for `COc1ccc(-c2ccco2)c2c1c(CCN(C)C)cn2C` [6-8, 2-(7-(furan-2-yl)-4-methoxy-1-methyl-1H-indol-3-yl)-N,N-dimethylethanamine] reads 500 to 10000 nM; that for `CCOc1c(F)ccc2c1c(CCNCc1cccc(C)c1)cn2C` [30-20, 2-(4-ethoxy-5-fluoro-1-methyl-1H-indol-3-yl)-N-(3-methylbenzyl)ethanamine], 1 to 500 nM; that for `CNCCc1cn(C)c2ccc(F)c(OCCc3ccccc3)c12` [33-26, 2-(5-fluoro-1-methyl-4-phenethoxy-1H-indol-3-yl)-N-methylethanamine], 1 to 500 nM.
On the same count and under the same terms, the result for `CNCCc1cn(C)c2ccc(F)c(OCC(O)c3ccccc3Cl)c12` (stereo not drawn) [33-37, 1-(2-chlorophenyl)-2-(5-fluoro-1-methyl-3-(2-(methylamino)ethyl)-1H-indol-4-yloxy)ethanol] reads 1 to 500 nM.
